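Interpolation was linear, between the two tested concentrations surrounding the appropriate level; five concentrations were tested over 48 hours in 96-well plates. GI50: concentration for 50% inhibition of growth.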 Active and inactive are the calls of the source. Rule as the data show it: active = GI50 up to about 1.1 µM and inactive = higher.
Experiments:
Assay in all cases: inhibition of tumour cell growth, NCI panel, 48 h
T47D = system: T47D
NCI/ADR-RES = system: NCI/ADR-RES
HCT-116 = system: HCT-116
MDA-MB-231 = system: MDA-MB-231
A549 = system: A549
SN12C = system: SN12C
BT-549 = system: BT-549
MDA-N = system: MDA-N
HT-29 = system: HT-29
UACC-257 = system: UACC-257
OVCAR-8 = system: OVCAR-8
SNB-19 = system: SNB-19
MOLT-4 = system: MOLT-4
LOX IMVI = system: LOX IMVI
UO-31 = system: UO-31
U-251 = system: U-251
SNB-75 = system: SNB-75
RPMI-8226 = system: RPMI-8226
CCRF-CEM = system: CCRF-CEM

Measured: GI50

CC1=CC(=O)/C(=C/NC(=S)Nc2ccc(S(N)(=O)=O)cc2)C(=O)O1
inactive: T47D > 100 µM | NCI/ADR-RES > 100 µM | HCT-116 > 100 µM | MDA-MB-231 > 100 µM | A549 > 100 µM | SN12C > 100 µM | BT-549 > 100 µM | MDA-N > 100 µM | HT-29 > 100 µM | UACC-257 > 100 µM | OVCAR-8 > 100 µM | SNB-19 > 100 µM | MOLT-4 > 100 µM | LOX IMVI > 100 µM | UO-31 > 100 µM | U-251 > 100 µM | SNB-75 > 100 µM

Clc1ccc(-c2cc3nc4ccccc4nc3o2)cc1
inactive: T47D > 100 µM | NCI/ADR-RES 52.5 µM | HCT-116 > 100 µM | MDA-MB-231 > 100 µM | RPMI-8226 > 100 µM | A549 > 100 µM | BT-549 35 µM | MDA-N > 100 µM | HT-29 > 100 µM | CCRF-CEM > 100 µM | UACC-257 34.8 µM | OVCAR-8 32.6 µM | SNB-19 31.6 µM | MOLT-4 > 100 µM | LOX IMVI > 100 µM | UO-31 > 100 µM | U-251 29.9 µM | SNB-75 15.3 µM

N#Cc1nc(CCc2nc(C#N)c(N)o2)oc1N
inactive: T47D > 10 µM | NCI/ADR-RES > 10 µM | HCT-116 > 10 µM | MDA-MB-231 > 10 µM | RPMI-8226 > 10 µM | A549 > 10 µM | SN12C > 10 µM | BT-549 > 10 µM | MDA-N > 10 µM | HT-29 > 10 µM | CCRF-CEM > 10 µM | UACC-257 > 10 µM | OVCAR-8 > 10 µM | SNB-19 > 10 µM | MOLT-4 > 10 µM | LOX IMVI > 10 µM | UO-31 > 10 µM | SNB-75 > 10 µM

COc1ccc(/C=C2\N=C3N(Cc4ccccc4)C=C(N)N3C2=O)cc1
inactive: T47D > 100 µM | NCI/ADR-RES > 100 µM | HCT-116 > 100 µM | MDA-MB-231 36.2 µM | A549 > 100 µM | SN12C > 100 µM | BT-549 32.9 µM | MDA-N > 100 µM | HT-29 > 100 µM | CCRF-CEM 89.5 µM | UACC-257 30.8 µM | OVCAR-8 64.6 µM | SNB-19 20.8 µM | MOLT-4 > 100 µM | LOX IMVI > 100 µM | UO-31 46.6 µM | U-251 30.3 µM | SNB-75 17.5 µM

CC1(C)CNC(=O)C2(/C=N/C(C)(C)CNC(=O)C3(/C=N/1)CCCO3)CCCO2 (configuration not stated)
inactive: T47D > 10 µM | NCI/ADR-RES > 10 µM | HCT-116 > 10 µM | MDA-MB-231 > 10 µM | RPMI-8226 > 10 µM | A549 > 10 µM | SN12C > 10 µM | BT-549 > 10 µM | MDA-N > 10 µM | HT-29 > 10 µM | CCRF-CEM > 10 µM | UACC-257 > 10 µM | OVCAR-8 > 10 µM | SNB-19 > 10 µM | MOLT-4 > 10 µM | U-251 > 10 µM | SNB-75 > 10 µM

Sc1nn2c(COc3cc(Cl)c(OCc4nnc5sc(S)nn45)cc3Cl)nnc2s1
inactive: T47D 26 µM | NCI/ADR-RES > 100 µM | HCT-116 46 µM | MDA-MB-231 > 100 µM | RPMI-8226 32.4 µM | A549 > 100 µM | SN12C 41.2 µM | BT-549 32.7 µM | MDA-N 33.6 µM | HT-29 43.3 µM | UACC-257 > 100 µM | OVCAR-8 88.5 µM | SNB-19 > 100 µM | MOLT-4 31.3 µM | LOX IMVI 32.8 µM | UO-31 31.3 µM | U-251 > 100 µM | SNB-75 82 µM

O=C1CSC(c2ccccc2)N1c1ccc(-c2ccc(-n3c(-c4ccccc4)nc4ccccc4c3=O)cc2)cc1 (configuration not stated)
inactive: T47D 25 µM | NCI/ADR-RES 43.5 µM | MDA-MB-231 40.9 µM | RPMI-8226 36.8 µM | A549 41.7 µM | SN12C > 100 µM | BT-549 43.3 µM | MDA-N 64.9 µM | HT-29 46.1 µM | CCRF-CEM 37.2 µM | UACC-257 > 100 µM | OVCAR-8 44.4 µM | SNB-19 82.8 µM | MOLT-4 19.6 µM | LOX IMVI 50.7 µM | UO-31 49.8 µM | U-251 56.9 µM

CC1=C(C(=O)OCCO[N+](=O)[O-])C(c2ccccc2[N+](=O)[O-])C(C(=O)OC(C)C)=C(C)N1 (configuration not stated)
inactive: T47D 13 µM | NCI/ADR-RES 16.8 µM | HCT-116 15.4 µM | MDA-MB-231 15.6 µM | RPMI-8226 84.9 µM | A549 16.3 µM | SN12C 17.6 µM | BT-549 16.5 µM | MDA-N 17.2 µM | HT-29 15.7 µM | CCRF-CEM 33.2 µM | UACC-257 15.3 µM | OVCAR-8 22.5 µM | SNB-19 18 µM | MOLT-4 40.9 µM | LOX IMVI 17.7 µM | UO-31 13.2 µM | U-251 16.2 µM

C[C@H]1S[C@H](c2c(F)cccc2F)n2c1nc1ccccc12
inactive: T47D 29.2 µM | NCI/ADR-RES 44.2 µM | HCT-116 34.6 µM | MDA-MB-231 68.7 µM | RPMI-8226 37.5 µM | A549 47.1 µM | SN12C 74.1 µM | BT-549 52.8 µM | MDA-N 59.2 µM | HT-29 47.3 µM | CCRF-CEM 40.5 µM | UACC-257 50.2 µM | OVCAR-8 69 µM | SNB-19 > 100 µM | MOLT-4 40.6 µM | UO-31 34.4 µM | U-251 54.5 µM | SNB-75 > 100 µM

COc1ccc(N2C(=O)C3c4[nH]c5ccc(OCc6ccccc6)cc5c4C4CCC(C(C)(C)C)CC4C3C2=O)cc1 (configuration not stated)
inactive: T47D 17.5 µM | NCI/ADR-RES 63.5 µM | HCT-116 42.4 µM | MDA-MB-231 53.2 µM | RPMI-8226 > 100 µM | A549 > 100 µM | SN12C 78.5 µM | BT-549 > 100 µM | MDA-N > 100 µM | HT-29 > 100 µM | UACC-257 > 100 µM | OVCAR-8 46.3 µM | SNB-19 > 100 µM | MOLT-4 > 100 µM | LOX IMVI > 100 µM | U-251 27.1 µM

C/C(=C\c1ccc(Cl)cc1)C(C)(C)C(=O)O
inactive: T47D > 100 µM | NCI/ADR-RES > 100 µM | HCT-116 > 100 µM | MDA-MB-231 > 100 µM | RPMI-8226 > 100 µM | A549 > 100 µM | SN12C > 100 µM | BT-549 > 100 µM | MDA-N > 100 µM | HT-29 > 100 µM | CCRF-CEM 52.5 µM | UACC-257 > 100 µM | OVCAR-8 > 100 µM | SNB-19 > 100 µM | MOLT-4 > 100 µM | UO-31 > 100 µM | U-251 > 100 µM | SNB-75 > 100 µM

NS(=O)(=O)c1ccc(NCc2nc3ccccc3[nH]2)cc1
inactive: T47D > 100 µM | NCI/ADR-RES > 100 µM | HCT-116 > 100 µM | MDA-MB-231 > 100 µM | A549 > 100 µM | SN12C > 100 µM | BT-549 > 100 µM | MDA-N > 100 µM | HT-29 > 100 µM | UACC-257 > 100 µM | OVCAR-8 > 100 µM | SNB-19 > 100 µM | LOX IMVI > 100 µM | UO-31 > 100 µM | U-251 > 100 µM | SNB-75 > 100 µM

COc1cccc2c(Nc3ccc(S(=O)(=O)N=C(N)N)cc3)c3ccc([N+](=O)[O-])cc3nc12
inactive: T47D 1.35 µM | NCI/ADR-RES > 100 µM | HCT-116 16.6 µM | MDA-MB-231 2.34 µM | RPMI-8226 8.05 µM | A549 20.2 µM | SN12C 30 µM | BT-549 13.6 µM | MDA-N 17.6 µM | HT-29 32.8 µM | CCRF-CEM 2.38 µM | UACC-257 17.4 µM | OVCAR-8 15.7 µM | SNB-19 12.6 µM | MOLT-4 2.29 µM | LOX IMVI 11.4 µM | UO-31 16.3 µM | U-251 5.61 µM

CCOc1cc(C2CC(c3ccc(NS(=O)(=O)c4cc([N+](=O)[O-])ccc4C)cc3)=NN2S(=O)(=O)c2cc([N+](=O)[O-])ccc2C)ccc1O (configuration not stated)
inactive: T47D 19.8 µM | NCI/ADR-RES 39.4 µM | HCT-116 36.5 µM | MDA-MB-231 32.1 µM | RPMI-8226 34.3 µM | A549 32.4 µM | SN12C 28.4 µM | BT-549 39.4 µM | MDA-N 43.3 µM | HT-29 49.3 µM | CCRF-CEM 33 µM | UACC-257 32.7 µM | OVCAR-8 42.8 µM | SNB-19 43.6 µM | MOLT-4 30.4 µM | LOX IMVI 40.1 µM | UO-31 32.6 µM | U-251 30.7 µM

CC(=O)Oc1ccn2nc(C)c(Br)c2c1
inactive: T47D 99.1 µM | NCI/ADR-RES > 100 µM | HCT-116 > 100 µM | MDA-MB-231 > 81.3 µM | A549 > 70.5 µM | SN12C > 100 µM | BT-549 > 100 µM | MDA-N 49.3 µM | HT-29 53.3 µM | CCRF-CEM 29.9 µM | UACC-257 36.2 µM | OVCAR-8 > 64.4 µM | SNB-19 > 100 µM | MOLT-4 43 µM | LOX IMVI 34 µM | U-251 97.7 µM | SNB-75 > 44.1 µM

Source: ChEMBL document CHEMBL1201862, “PubChem BioAssay data set” (2004)
